Read-outs that look alike come from different tables or passages of the source.

Assay [1] has as its target DAT (Rattus norvegicus, UniProt P23977). The assay is described as follows: DAT radioligand binding assay. Particulars: for pKi ± S.E.M. DAT [3H]WIN 35,428: mean ± S.E.M., 3 independent experiments.
The target of a further assay is SERT (Rattus norvegicus, UniProt P31652). The assay is described as follows: SERT radioligand binding assay. Particulars: for pKi ± S.E.M. SERT [3H]Citalopram: rat brain membranes (stem in methods), mean ± S.E.M., 3 independent experiments.
Assay [2] deals with DAT. The settings on record: read-out: DAT Ki; cited from earlier work.
The next assay concerns the target NET (Rattus norvegicus, UniProt Q63380). The assay is described as follows: NET radioligand binding assay.
In a further assay the target is human DAT (hDAT) (Homo sapiens, UniProt Q01959). The assay is described as follows: [3H]dopamine uptake inhibition in CAD cells transiently expressing hDAT. The assay is classed as cell-based.
The target in the next assay is EGFP-hDAT (Homo sapiens, UniProt Q01959). The assay is described as follows: TIRF microscopy of surface labeling of EGFP-hDAT-expressing CAD cells. The assay is classed as cell-based. Particulars: 10 nM ligand, 10 min, rt; fixed cells.
Setting [3] is: read-out: Ki DAT [3H]WIN 35,428, rat striatum membranes, value in parentheses.
Setting [4] is: IC50 DAT [3H]DA, value in parentheses.
Setting [5] is: pIC50 ± S.E.M. DAT [3H]DA, 20 nM [3H]DA, 5 min, rt.

Sequence of human DAT (hDAT) (Q01959 whole entry): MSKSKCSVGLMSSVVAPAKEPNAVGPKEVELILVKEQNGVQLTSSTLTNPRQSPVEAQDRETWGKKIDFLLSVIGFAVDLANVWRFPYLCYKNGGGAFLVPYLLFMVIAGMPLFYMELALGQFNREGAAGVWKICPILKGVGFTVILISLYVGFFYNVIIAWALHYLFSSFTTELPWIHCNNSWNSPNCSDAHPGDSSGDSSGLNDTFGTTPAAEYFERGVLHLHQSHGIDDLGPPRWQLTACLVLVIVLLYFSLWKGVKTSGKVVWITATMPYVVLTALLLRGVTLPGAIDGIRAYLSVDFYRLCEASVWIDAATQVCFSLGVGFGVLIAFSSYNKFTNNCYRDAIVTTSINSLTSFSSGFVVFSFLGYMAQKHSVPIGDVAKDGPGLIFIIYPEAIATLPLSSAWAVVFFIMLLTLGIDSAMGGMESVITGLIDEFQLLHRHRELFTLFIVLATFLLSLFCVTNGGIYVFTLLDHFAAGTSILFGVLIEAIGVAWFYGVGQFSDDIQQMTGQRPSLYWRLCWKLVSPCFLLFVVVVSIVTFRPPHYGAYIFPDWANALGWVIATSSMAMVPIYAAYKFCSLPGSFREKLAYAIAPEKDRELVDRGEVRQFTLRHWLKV
Sequence of EGFP-hDAT (Q01959 whole entry): as above
Sequence of SERT (P31652 whole entry): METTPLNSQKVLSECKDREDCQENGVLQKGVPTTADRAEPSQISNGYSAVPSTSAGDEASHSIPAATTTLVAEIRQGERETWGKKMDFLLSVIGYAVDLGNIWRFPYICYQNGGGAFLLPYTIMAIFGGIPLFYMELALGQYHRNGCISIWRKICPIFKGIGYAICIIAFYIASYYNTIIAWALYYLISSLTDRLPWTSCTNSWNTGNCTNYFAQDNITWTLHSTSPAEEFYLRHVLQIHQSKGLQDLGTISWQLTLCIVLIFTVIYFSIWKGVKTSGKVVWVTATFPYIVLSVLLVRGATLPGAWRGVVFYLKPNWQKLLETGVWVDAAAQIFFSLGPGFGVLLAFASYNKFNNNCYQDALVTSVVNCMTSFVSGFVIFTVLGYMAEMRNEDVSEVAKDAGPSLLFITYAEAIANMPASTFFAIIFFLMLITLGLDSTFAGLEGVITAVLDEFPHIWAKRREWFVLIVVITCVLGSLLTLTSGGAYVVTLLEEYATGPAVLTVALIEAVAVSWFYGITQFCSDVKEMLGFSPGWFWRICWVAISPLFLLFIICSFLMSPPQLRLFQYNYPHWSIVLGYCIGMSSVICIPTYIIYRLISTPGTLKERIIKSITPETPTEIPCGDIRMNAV
Sequence of DAT (Rattus norvegicus, UniProt P23977) (P23977 whole entry): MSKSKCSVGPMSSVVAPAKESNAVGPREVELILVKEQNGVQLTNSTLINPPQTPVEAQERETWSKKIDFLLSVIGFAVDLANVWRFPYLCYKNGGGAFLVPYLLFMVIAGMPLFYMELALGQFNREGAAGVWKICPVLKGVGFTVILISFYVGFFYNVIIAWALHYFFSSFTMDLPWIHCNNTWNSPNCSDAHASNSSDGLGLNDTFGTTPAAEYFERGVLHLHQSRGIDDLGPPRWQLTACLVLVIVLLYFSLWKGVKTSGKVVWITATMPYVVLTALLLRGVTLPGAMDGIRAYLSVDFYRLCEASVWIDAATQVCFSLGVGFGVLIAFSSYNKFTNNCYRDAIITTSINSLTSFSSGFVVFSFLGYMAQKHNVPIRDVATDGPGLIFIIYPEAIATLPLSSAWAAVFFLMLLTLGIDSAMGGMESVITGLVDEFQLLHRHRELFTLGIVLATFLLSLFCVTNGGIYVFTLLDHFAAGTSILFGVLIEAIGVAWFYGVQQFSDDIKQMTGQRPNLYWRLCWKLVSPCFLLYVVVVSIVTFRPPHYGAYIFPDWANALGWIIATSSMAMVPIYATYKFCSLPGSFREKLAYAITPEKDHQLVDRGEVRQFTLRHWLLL
Sequence of NET (Q63380 1-617): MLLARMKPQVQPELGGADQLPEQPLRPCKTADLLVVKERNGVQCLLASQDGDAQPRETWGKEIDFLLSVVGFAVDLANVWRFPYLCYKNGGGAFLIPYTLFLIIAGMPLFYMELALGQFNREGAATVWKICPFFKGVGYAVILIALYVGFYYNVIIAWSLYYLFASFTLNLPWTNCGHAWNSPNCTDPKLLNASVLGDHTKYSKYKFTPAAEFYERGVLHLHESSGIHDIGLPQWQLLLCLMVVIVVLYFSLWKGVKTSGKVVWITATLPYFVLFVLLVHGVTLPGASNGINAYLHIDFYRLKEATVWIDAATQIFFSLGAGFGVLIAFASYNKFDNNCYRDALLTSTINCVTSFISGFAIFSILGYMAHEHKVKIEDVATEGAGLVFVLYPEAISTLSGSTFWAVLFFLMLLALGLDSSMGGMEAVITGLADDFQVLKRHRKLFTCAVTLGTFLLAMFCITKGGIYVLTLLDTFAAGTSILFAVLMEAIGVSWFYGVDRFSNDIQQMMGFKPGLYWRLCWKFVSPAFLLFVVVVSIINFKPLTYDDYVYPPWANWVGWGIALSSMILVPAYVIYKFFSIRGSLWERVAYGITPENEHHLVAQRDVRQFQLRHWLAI

As usually defined, the Ki is the dissociation constant of the complex between target and ligand, obtained from inhibition or displacement. Turning to `COC(=O)[C@H]1[C@@H](c2ccc(Cl)c(Cl)c2)C[C@@H]2CC[C@H]1N2C` [Compound 1, reference compound], the “pKi ± S.E.M. DAT [3H]WIN 35,428” value at DAT [1] (rat striatum membranes) was determined as 9.10 ± 0.23. Also, the inhibitory constant (Ki) on DAT [1] (setting [3]) is 0.8 nM. The “pKi ± S.E.M. SERT [3H]Citalopram” value at SERT came to 7.99 ± 0.20.
Regarding `CCN(CC)c1ccc2c(-c3ccc(S(=O)(=O)NCCCCCC(=O)NCCN4C5CCC4[C@@H](C(=O)OC)[C@@H](c4ccc(Cl)c(Cl)c4)C5)cc3S(=O)(=O)[O-])c3ccc(=[N+](CC)CC)cc-3oc2c1` (some centres unmarked) [Compound 2, reference compound], the “pKi ± S.E.M. DAT [3H]WIN 35,428” value at DAT [1] (rat striatum membranes) came to 7.79 ± 0.09. The Ki on DAT [1] (setting [3]) is 16 nM; at DAT [2], 18 nM. On SERT, the “pKi ± S.E.M. SERT [3H]Citalopram” value is reported as 7.80 ± 0.08.
Usually IC50 stands for the midpoint of a concentration-inhibition curve. `COC(=O)[C@H]1[C@@H](c2ccc(Cl)c(Cl)c2)C[C@@H]2CC[C@H]1N2CCOCCOCCNC(=O)c1ccc(C(=O)[O-])c(-c2c3ccc(=[N+]4CCC4)cc-3oc3cc(N4CCC4)ccc23)c1` [Compound 3, 2-(3-(Azetidin-1-ium-1-ylidene)-6-(azetidin-1-yl)-3H-xanthen-9-yl)-4-((2-(2-(2-((1R,2S,3S,5S)-3-(3,4-dichlorophenyl)-2-(methoxycarbonyl)-8-azabicyclo[3.2.1]octan-8-yl)ethoxy)ethoxy)ethyl)carbamoyl)benzoate]: the Ki was 6.03 nM on DAT [1], 225 nM at NET and 41.7 nM at SERT. Further, the IC50 is 28 nM at human DAT (hDAT) (setting [4]) and 28.2 nM at human DAT (hDAT) (setting [5]). The “surface labeling of EGFP-hDAT-expressing CAD cells, TIRF microscopy (in words)” value (“surface labeling” for short) on EGFP-hDAT is “surface labeling was observed”.
`COC(=O)[C@H]1[C@@H](c2ccc(Cl)c(Cl)c2)C[C@@H]2CC[C@H]1N2CCOCCOCCOCCOCCOCCNC(=O)c1ccc2c(c1)C1(OC2=O)c2ccc(N3CCC3)cc2[Si](C)(C)c2cc(N3CCC3)ccc21` [Compound 4, Methyl (1R,2S,3S,5S)-8-(1-(3,7-di(azetidin-1-yl)-5,5-dimethyl-3’-oxo-3’H,5H-spiro[dibenzo[b,e]siline-10,1’-isobenzofuran]-6’-yl)-1-oxo-5,8,11,14,17-pentaoxa-2-azanonadecan-19-yl)-3-(3,4-dichlorophenyl)-8-azabicyclo[3.2.1]octane-2-carboxylate]: the “pKi ± S.E.M. DAT [3H]WIN 35,428” value on DAT [1] (rat striatum membranes) was found to be 7.55 ± 0.03. For the same compound, the Ki on DAT [1] (setting [3]) is 28 nM. In addition, on SERT, the “pKi ± S.E.M. SERT [3H]Citalopram” value turned out to be 7.37 ± 0.05. Besides, the “pIC50 ± S.E.M. DAT [3H]DA” value on human DAT (hDAT) (20 nM [3H]DA, 5 min, rt) was 6.99 ± 0.15. The “surface labeling” value at EGFP-hDAT was “surface labeling was observed”.
`COC(=O)[C@H]1[C@@H](c2ccc(Cl)c(Cl)c2)C[C@@H]2CC[C@H]1N2CCOCCOCCNC(=O)c1ccc2c(c1)C1(OC2=O)c2ccc(N3CCC3)cc2[Si](C)(C)c2cc(N3CCC3)ccc21` [Compound 10, Methyl (1R,2S,3S,5S)-8-(2-(2-(2-(3,7-di(azetidin-1-yl)-5,5-dimethyl-3’-oxo-3’H,5H-spiro[dibenzo[b,e]siline-10,1’-isobenzofuran]-6’-carboxamido)ethoxy)ethoxy)ethyl)-3-(3,4-dichlorophenyl)-8-azabicyclo[3.2.1]octane-2-carboxylate]: the Ki is 112 nM on DAT [1], 468 nM at NET and 153 nM on SERT. The IC50 at human DAT (hDAT) (setting [4]) and at human DAT (hDAT) (setting [5]) was 1150 nM in each case.
With `COC(=O)[C@H]1[C@@H](c2ccc(Cl)c(Cl)c2)C[C@@H]2CC[C@H]1N2CCN1CCN(CCCCNC(=O)c2ccc3c(c2)C2(OC3=O)c3ccc(N4CCC4)cc3[Si](C)(C)c3cc(N4CCC4)ccc32)CC1` [Compound 14, Methyl (1R,2S,3S,5S)-8-(2-(4-(4-(3,7-di(azetidin-1-yl)-5,5-dimethyl-3’-oxo-3’H,5H-spiro[dibenzo[b,e]siline-10,1’-isobenzofuran]-6’-carboxamido)butyl)piperazin-1-yl)ethyl)-3-(3,4-dichlorophenyl)-8-azabicyclo[3.2.1]octane-2-carboxylate], the Ki is 38 nM on DAT [1], 1200 nM on NET and 38 nM at SERT. Also, the IC50 at human DAT (hDAT) (setting [4]) was 160 nM; at human DAT (hDAT) (setting [5]), 158 nM. The “surface labeling” value on EGFP-hDAT is “the labeling was very punctate”.
